Measured values published in US20250051263A1, “NOVEL IONIZABLE LIPIDS AND LIPID NANOPARTICLES AND METHODS OF USING THE SAME” (Sail Biomedicines, Inc., priority 2021, published 2025).
“And” between values parts separate entries of the source, which are not always exact repeats. Equal values may be shown once.

How the values were obtained:
[1] = mRNA encapsulation efficiency, Quant-iT RiboGreen RNA Assay; assay type: physicochemical
From the text: (§1) All other compositions (i.e., compositions of MC3 (a commercially available ionizable lipid having a chemical name of (6Z,9Z,28Z,31Z)-heptatriacont-6,9,28,31-tetraene-19-yl 4-(dimethylamino)butanoate, and compositions of novel ionizable lipids 7669, 7671, 7668, 767, 7650) are composed of ionizable lipid:structural lipid:sterol:PEG-lipid (SDA lipid #:DSPC:cholesterol:14:0 PEG2000 PE) at a molar ratio of […], respectively. Lipids are solubilized in ethanol. Compositions are then handled as above, except the formulations are maintained at ionizable lipid to mRNA N:P ratio of 6:1. The lipid mix and mRNA solution are mixed at a 1:3 ratio by volume, respectively, on a NanoAssemblr Ignite (Precision Nanosystems) at a total flow rate of 9 mL/min. Resulting compositions are then loaded into Slide-A-Lyzer G2 dialysis cassettes (10 k MWCO) and dialyzed in 200 times sample volume of 1×PBS for 4 hrs at room temp with gentle stirring. The PBS is refreshed, and the compositions are further dialyzed for at least 14 hrs at 4° C. with gentle stirring. The dialyzed compositions are then collected and concentrated by centrifugation at 2000×g using Amicon Ultra centrifugation filters (100 k MWCO). Concentrated particles are characterized for size, polydispersity, and particle concentration using Zetasizer Ultra (Malvern Panalytical) and for mRNA encapsulation efficiency using Quant-iT RiboGreen RNA Assay Kit (ThermoFisher Scientific).
(§2) The lipid mix and mRNA solution were mixed at a 1:3 ratio by volume, respectively, on the NanoAssemblr Ignite (Precision Nanosystems) at a total flow rate of 9 mL/min. Resulting formulations were then loaded into Slide-A-Lyzer G2 dialysis cassettes (10 k MWCO) and dialyzed in 200 times sample volume of 1×PBS for 2 hrs at room temperature. The PBS was refreshed, and the formulations were further dialyzed for at least 14 hrs at 4° C. with gentle stirring. The dialyzed formulations were then collected and concentrated by centrifugation at 3000×g using Amicon Ultra centrifugation filters (100 k MWCO). The concentrated formulations were characterized for size, polydispersity, and particle concentration using Zetasizer Ultra (Malvern Panalytical) and for mRNA encapsulation efficiency using Quant-iT RiboGreen RNA Assay Kit (ThermoFisher Scientific).
(§3) For each LNP composition, the lipid mix and mRNA solution were mixed at a 1:3 ratio by volume, respectively, on a NanoAssemblr Ignite (Precision Nanosystems) at a total flow rate of 9 mL/min. The resulting compositions were then loaded into Slide-A-Lyzer G2 dialysis cassettes (10 k MWCO) and dialyzed in 200 times sample volume of 1×PBS for 2 hours at room temperature with gentle stirring. The PBS was refreshed, and the compositions were further dialyzed for at least 14 hours at 4° C. with gentle stirring. The dialyzed compositions were then collected and concentrated by centrifugation at 3000×g using Amicon Ultra centrifugation filters (100 k MWCO). The concentrated particles were characterized for size, polydispersity, and particle concentration using Zetasizer Ultra (Malvern Panalytical) and for mRNA encapsulation efficiency using Quant-iT RiboGreen RNA Assay Kit (ThermoFisher Scientific).

Balb/c mice = test: In-vivo bioluminescent imaging after IV injection of Fluc mRNA LNP; details: for Bioluminescence (IV) Liver / Bioluminescence (IV) Lung / Bioluminescence (IV) Spleen / Bioluminescence (IV) Whole Body / Spleen: Liver Ratio: Example 5 LNP (DOPE 35:16:46.5:2.5), 5 μg FLUC + 5 μg EPO; for Bioluminescence (IV) Liver / Bioluminescence (IV) Lung / Bioluminescence (IV) Spleen / Bioluminescence (IV) Whole Body / Bioluminescence Liver / Bioluminescence Lung / Bioluminescence Spleen: 4-6 hours post-dose; for Bioluminescence (IV) Liver / Bioluminescence (IV) Lung / Bioluminescence (IV) Spleen / Bioluminescence (IV) Whole Body / Spleen: Liver Ratio / Bioluminescence Liver / Bioluminescence Lung / Bioluminescence Spleen: IV; for Spleen: Liver Ratio: ratio of bioluminescence; for Bioluminescence Liver / Bioluminescence Lung / Bioluminescence Spleen: LNP lipid:DSPC:Plant Chol.:DMPE-PEG2k 50:10:38.5:1.5, 5 ug Fluc+5 ug EPO mRNA; for bioluminescence in the liver, spleen, and lung: used as part of an ionizable lipid scaffold (LNP), Table 1
Description: 8-9 week old female Balb/c mice are utilized for bioluminescence-based ionizable lipid screening efforts. Mice are obtained from Jackson Laboratories (JAX Stock: 000651) and allowed to acclimate for one week prior to manipulations. Animals are placed under a heat lamp for a few minutes before introducing them to a restraining chamber. The tail is wiped with alcohol pads (Fisher Scientific) and 100 μL of a lipid nanoparticle composition descrbed above containing 10 ug total mRNA (5 ug Fluc+5 ug EPO) is injected intravenously using a 29 G insulin syringe (Covidien). Any resulting bleeding is stemmed using a sterile gauze pad (Fisher Scientific) and animals are placed back into their home cage. 4-6 hours post-dose, animals are injected with 200 μL of 15 mg/mL D-Luciferin (GoldBio) and placed in an isoflurane induction chamber set to deliver 2.5% isoflurane delivered at an oxygen flow rate of 1-2 liters per min. After 5 minutes of isoflurane exposure, mice are placed in set nose cones inside the IVIS Lumina LT imager (PerkinElmer). LivingImage software is utilized for imaging. Whole body bio-luminescence is captured at auto-exposure after which animals are removed from the IVIS and placed into a CO2 chamber for euthanasia. Cardiac puncture is performed on each animal after placing it in dorsal recumbency, and blood collection is performed using a 25 G insulin syringe (BD). Blood is collected in Lithium-Heparin coated tubes (Fisher Scientific) and immediately placed on ice. Once all blood samples are collected, tubes are spun at 2000 G for 10 minutes using a tabletop centrifuge and plasma is aliquoted into individual Eppendorf tubes (Fisher Scientific) and stored at −80 C for subsequent EPO quantification. EPO levels in plasma are determined using EPO MSD kit (Meso Scale Diagnostics).
8-9 week old female Balb/c mice were utilized for bioluminescence-based ionizable lipid screening efforts. Mice were obtained from Jackson Laboratories (JAX Stock: 000651) and allowed to acclimate for one week prior to manipulations. Animals were placed under a heat lamp for a few minutes before introducing them to a restraining chamber. The tail was wiped with alcohol pads (Fisher Scientific) and, for each LNP composition descrbed above, 100 μL of a lipid nanoparticle composition descrbed above containing 10 μg total mRNA (5 μg Fluc+5 μg EPO, 5 μg Fluc+5 μg Cre, or 5 μg EGFP) was injected intravenously using a 29 G insulin syringe (Covidien).
4-6 hours post-dose, animals were injected with 200 μL of 15 mg/mL D-Luciferin (GoldBio), and placed in set nose cones inside the IVIS Lumina LT imager (PerkinElmer). LivingImage software was utilized for imaging. Whole body bio-luminescence was captured at auto-exposure after which animals are removed from the IVIS and placed into a CO2 chamber for euthanasia. Cardiac puncture was performed on each animal after placing it in dorsal recumbency, and blood collection was performed using a 25 G insulin syringe (BD). Once all blood samples were collected, tubes are spun at 2000 G for 10 minutes using a tabletop centrifuge and plasma was aliquoted into individual Eppendorf tubes (Fisher Scientific) and stored at −80° C. for subsequent EPO quantification. EPO levels in plasma were determined using EPO MSD kit (Meso Scale Diagnostics).

[2] = LNP size and polydispersity, Zetasizer Ultra; assay type: physicochemical
From the text: as §1, §2, §3

[3] = Example 5 LNP lipid:DOPE:Plant Cholesterol:DMPE-PEG2k 35:16:46.5:2.5, FLUC/EPO 1:1 mRNA, N:P 6:1
[4] = LNP ionizable lipid:DOPE:Plant Chol.:DMPE-PEG2k 35:16:46.5:2.5 (Table 1)
[5] = LNP ionizable lipid:DSPC:Plant Chol.:DMPE-PEG2k 50:10:38.5:1.5

Row | Structure (SMILES) | % EE [1, 3] | Bioluminescence (IV) Liver (Balb/c mice) | Bioluminescence (IV) Lung (Balb/c mice) | Bioluminescence (IV) Spleen (Balb/c mice) | Bioluminescence (IV) Whole Body (Balb/c mice) | Spleen: Liver Ratio (Balb/c mice) | PDI [2, 3] | Size (nm) [2, 3] | % EE [1, 4] | Bioluminescence Liver (Balb/c mice) | Bioluminescence Lung (Balb/c mice) | Bioluminescence Spleen (Balb/c mice) | bioluminescence in the liver, spleen, and lung (Balb/c mice) | PDI [2, 4] | Size (nm) [2, 4] | PDI [2, 5] | Size (nm) [2, 5]
1 | CCCCCCCCCOC(=O)CCCCCCCN(CCCCCCCC(=O)OC(CCCCCCCC)CCCCCCCC)CCNC(=O)CCC(=O)NCCN(CCCCCCCC(=O)OCCCCCCCCC)CCCCCCCC(=O)OC(CCCCCCCC)CCCCCCCC [Compound 2213, nonyl 8-[2-[[4-[2-[(8-nonoxy-8-oxo-octyl)-[8-(1-octylnonoxy)-8-oxo-octyl]amino]ethylamino]-4-oxo-butanoyl]amino]ethyl-[8-(1-octylnonoxy)-8-oxo-octyl]amino]octanoate] | 92.5% | 2.2E+06 | 3.7E+03 | 3.5E+05 | 1.0E+07 | 0.215 | 0.10 | 63.9 nm |  |  |  |  |  |  |  |  | 
2 | CCCCCCCCCCCOC(=O)CCCCCN(CCCCCCCC(=O)OC(CCCCCCCC)CCCCCCCC)CCOC(=O)OCCN(CCCCCCCC(=O)OC(CCCCCCCC)CCCCCCCC)CCCCCC(=O)OCCCCCCCCCCC [Compound 2218, 1-octylnonyl 8-[2-[2-[[8-(1-octylnonoxy)-8-oxo-octyl]-(6-oxo-6-undecoxy-hexyl)amino]ethoxycarbonyloxy]ethyl-(6-oxo-6-undecoxy-hexyl)amino]octanoate] | 91.7% | 1.9E+03 | 7.9E+02 | 1.8E+03 | 4.1E+03 | 1.019 | 0.09 | 70.0 nm | 94.4% and 91.7% | 1.16E+03 | 7.20E+02 | 8.14E+03 | improved bioluminescence | 0.17 and 0.09 | 71.28 nm and 70.00 nm | 0.05 | 96.55 nm
3 | CCCCCCCCCCCOC(=O)CCCCCN(CCCCCCCC(=O)OC(CCCCCCCC)CCCCCCCC)CCNC(=O)CC(=O)NCCN(CCCCCCCC(=O)OC(CCCCCCCC)CCCCCCCC)CCCCCC(=O)OCCCCCCCCCCC [Compound 2220, 1-octylnonyl 8-[2-[[3-[2-[[8-(1-octylnonoxy)-8-oxo-octyl]-(6-oxo-6-undecoxy-hexyl)amino]ethylamino]-3-oxo-propanoyl]amino]ethyl-(6-oxo-6-undecoxy-hexyl)amino]octanoate] | 94.4% | 1.1E+07 | 1.8E+03 | 7.5E+04 | 4.3E+07 | 0.004 | 0.17 | 71.3 nm |  | 1.03E+07 | 7.79E+03 | 2.09E+06 | improved bioluminescence |  |  | 0.03 | 89.17 nm
4 | CCCCCCCCCCCOC(=O)CCCCCN(CCCCCCCC(=O)OC(CCCCCCCC)CCCCCCCC)CCNC(=O)NCCN(CCCCCCCC(=O)OC(CCCCCCCC)CCCCCCCC)CCCCCC(=O)OCCCCCCCCCCC [Compound 2246, 1-octylnonyl8-[2-[2-[[8-(1-octylnonoxy)-8-oxo-octyl]-(6-oxo-6-undecoxy-hexyl)amino]ethylcarbamoylamino]ethyl-(6-oxo-6-undecoxy-hexyl)amino]octanoate] | 94.9% | 1.8E+07 | 3.7E+03 | 1.3E+05 | 1.3E+08 | 0.007 | 0.05 | 62.7 nm |  |  |  |  |  |  |  |  | 
5 | CCCCCCCCCCCOC(=O)CCCCCN(CCCCCCCC(=O)OC(CCCCCCCC)CCCCCCCC)CCN1CCN(CCN(CCCCCCCC(=O)OC(CCCCCCCC)CCCCCCCC)CCCCCC(=O)OCCCCCCCCCCC)CC1 [Compound 2248, 1-octylnonyl 8-[2-[4-[2-[[8-(1-octylnonoxy)-8-oxo-octyl]-(6-oxo-6-undecoxy-hexyl)amino]ethyl]piperazin-1-yl]ethyl-(6-oxo-6-undecoxy-hexyl)amino]octanoate] | 95.0% | 5.6E+07 | 2.7E+04 | 4.5E+05 | 3.5E+08 | 0.008 | 0.10 | 83.5 nm |  |  |  |  |  |  |  |  | 
